Data published in patent publication EP4548976A1, “ANTIVIRAL COMPOUNDS AND COMPOSITIONS THEREFROM” (Consejo Superior De Investigaciones Científicas, priority 2023, dated 2025).
pEC50: −log10 of the molar value.

Legend:
in vitro = settings: human
[1] = test system: SARS-CoV-2 stock strain NL/2020; assay: Antiviral activity in A549-ACE2 cells using viral antigen quantitation (SARS-CoV-2 N protein immunofluorescence); assay type: cell-based; settings: Severe acute respiratory syndrome coronavirus 2, MOI 0.005, 48 h; for pEC50: concentration reducing SARS-CoV-2 infection efficiency by 50% vs vehicle; for EC90: concentration reducing SARS-CoV-2 infection efficiency by 90% vs vehicle

Structure (SMILES)	CC50 (in vitro) [µM]	pEC50 [1]	EC90 [1] [µM]
COC(=O)c1cc(-c2ccc(N3CCOCC3)cc2)ccc1NC(C#N)[C@H](Cc1c[nH]c2ccc(Br)cc12)NC(=O)OC(C)(C)C (mixture of isomers) [Example 1, Methyl 4-(((1RS,2S)-3-(5-bromo-1H-indol-3-yl)-2-((tert-butoxycarbonyl)amino)-1-cyanopropyl)amino)-4'-morpholino-[1,1'-biphenyl]-3-carboxylate]	> 50	6.10	6
COC(=O)c1cc(-c2ccc(N3CCOCC3)cc2)ccc1NC(C#N)[C@H](Cc1c[nH]c2cc(Br)ccc12)NC(=O)OC(C)(C)C (mixture of isomers) [Example 2, Methyl 4-(((1RS,2S)-3-(6-bromo-1H-indol-3-yl)-2-((tert-butoxycarbonyl)amino)-1-cyanopropyl)amino)-4'-morpholino-[1,1'-biphenyl]-3-carboxylate]	> 50	5.80	6
COC(=O)c1cc(-c2ccc(N3CCOCC3)cc2)ccc1NC(C#N)[C@H](Cc1c[nH]c2c(Br)cccc12)NC(=O)OC(C)(C)C (mixture of isomers) [Example 3, Methyl 4-(((1RS,2S)-3-(7-bromo-1H-indol-3-yl)-2-((tert-butoxycarbonyl)amino)-1-cyanopropyl)amino)-4'-morpholino-[1,1'-biphenyl]-3-carboxylate]	> 50	5.46	8
COC(=O)c1cc(-c2ccc(N3CCOCC3)cc2)ccc1NC(C#N)[C@H](Cc1c[nH]c2cccc(Br)c12)NC(=O)OC(C)(C)C (mixture of isomers) [Example 4, Methyl 4-(((1RS,2S)-3-(4-bromo-1H-indol-3-yl)-2-((tert-butoxycarbonyl)amino)-1-cyanopropyl)amino)-4'-morpholino-[1,1'-biphenyl]-3-carboxylate]	> 50	5.70	7.5
COC(=O)c1cc(-c2ccc(N3CCOCC3)cc2)ccc1NC(C#N)[C@H](Cc1c[nH]c2ccc(-c3ccccc3)cc12)NC(=O)OC(C)(C)C (mixture of isomers) [Example 5, Methyl 4-(((1RS,2S)-2-((tert-butoxycarbonyl)amino)-1-cyano-3-(5-phenyl-1H-indol-3-yl)propyl)amino)-4'-morpholino-[1,1'-biphenyl]-3-carboxylate]	> 50	5.40	13
C#Cc1ccc(-c2cccc3[nH]cc(C[C@H](NC(=O)OC(C)(C)C)C(C#N)Nc4ccc(-c5ccc(N6CCOCC6)cc5)cc4C(=O)OC)c23)cc1 (mixture of isomers) [Example 6, Methyl 4-(((1RS,2S)-2-((tert-butoxycarbonyl)amino)-1-cyano-3-(4-(4-ethynylphenyl)-1H-indol-3-yl)propyl)amino)-4'-morpholino-[1,1'-biphenyl]-3-carboxylate]	> 50	5.10	20
COC(=O)c1cc(-c2ccnc(N3CCOCC3)c2)ccc1NC(C#N)[C@H](Cc1c[nH]c2ccccc12)NC(=O)OC(C)(C)C (mixture of isomers) [Example 7, Methyl 2-(((1RS,2S)-2-((tert-butoxycarbonyl)amino)-1-cyano-3-(1H-indol-3-yl)propyl)amino)-5-(2-morpholinopyridin-4-yl)benzoate]	> 50	5.96	6
COC(=O)c1cc(-c2ccc(C(=O)N3CCOCC3)cc2)ccc1NC(C#N)[C@H](Cc1c[nH]c2ccccc12)NC(=O)OC(C)(C)C (mixture of isomers) [Example 8, Methyl 4-(((1RS,2S)-2-((tert-butoxycarbonyl)amino)-1-cyano-3-(1H-indol-3-yl)propyl)amino)-4'-(morpholine-4-carbonyl)-[1,1'-biphenyl]-3-carboxylate]	> 50	6.05	2
COC(=O)c1cc(-c2ccc3[nH]ccc3c2)ccc1NC(C#N)[C@H](Cc1c[nH]c2ccccc12)NC(=O)OC(C)(C)C (mixture of isomers) [Example 9, Methyl 2-(((1RS,2S)-2-((tert-butoxycarbonyl)amino)-1-cyano-3-(1H-indol-3-yl)propyl)amino)-5-(1H-indol-5-yl)benzoate]	50	> 6.40	5
COC(=O)c1cc(-c2ccc(CN3CCOCC3)cc2)ccc1NC(C#N)[C@H](Cc1c[nH]c2ccccc12)NC(=O)OC(C)(C)C (mixture of isomers) [Example 10, Methyl 4-(((1RS,2S)-2-((tert-butoxycarbonyl)amino)-1-cyano-3-(1H-indol-3-yl)propyl)amino)-4'-(morpholinomethyl)-[1,1'-biphenyl]-3-carboxylate]	> 50	6.05	2
COC(=O)c1cc(-c2ccc3cc[nH]c3c2)ccc1NC(C#N)[C@H](Cc1c[nH]c2ccccc12)NC(=O)OC(C)(C)C (mixture of isomers) [Example 11, Methyl 2-(((1RS,2S)-2-((tert-butoxycarbonyl)amino)-1-cyano-3-(1H-indol-3-yl)propyl)amino)-5-(1H-indol-6-yl)benzoate]	30	5.40	8
COC(=O)c1cc(-c2cc3ccccc3o2)ccc1NC(C#N)[C@H](Cc1c[nH]c2ccccc12)NC(=O)OC(C)(C)C (mixture of isomers) [Example 12, Methyl 5-(benzofuran-2-yl)-2-(((1RS,2S)-2-((tert-butoxycarbonyl)amino)-1-cyano-3-(1H-indol-3-yl)propyl)amino)benzoate]	> 50	5.73	5
COC(=O)c1cc(-c2cc3ccccc3s2)ccc1NC(C#N)[C@H](Cc1c[nH]c2ccccc12)NC(=O)OC(C)(C)C (mixture of isomers) [Example 13, Methyl 5-(benzo[b]thiophen-2-yl)-2-(((1RS,2S)-2-((tert-butoxycarbonyl)amino)-1-cyano-3-(1H-indol-3-yl)propyl)amino)benzoate]	13	5.73	5
COC(=O)c1cc(C2=CCN(C(=O)OC(C)(C)C)CC2)ccc1NC(C#N)[C@H](Cc1c[nH]c2ccccc12)NC(=O)OC(C)(C)C (mixture of isomers) [Example 14, tert-Butyl 4-(4-(((1RS,2S)-2-((tert-butoxycarbonyl)amino)-1-cyano-3-(1H-indol-3-yl)propyl)amino)-3-(methoxycarbonyl)phenyl)-3,6-dihydropyridine-1(2H)-carboxylate]	> 50	5.15	16
COC(=O)c1cc(-c2ccc3[nH]cnc3c2)ccc1NC(C#N)[C@H](Cc1c[nH]c2ccccc12)NC(=O)OC(C)(C)C (mixture of isomers) [Example 15, Methyl 5-(1H-benzo[d]imidazol-5-yl)-2-(((1RS,2S)-2-((tert-butoxycarbonyl)amino)-1-cyano-3-(1H-indol-3-yl)propyl)amino)benzoate]	50	6.00	4
COC(=O)c1cc(-c2ccc3[nH]ncc3c2)ccc1NC(C#N)[C@H](Cc1c[nH]c2ccccc12)NC(=O)OC(C)(C)C (mixture of isomers) [Example 16, Methyl 2-(((1RS,2S)-2-((tert-butoxycarbonyl)amino)-1-cyano-3-(1H-indol-3-yl)propyl)amino)-5-(1H-indazol-5-yl)benzoate]	10	5.22	9
